SMILES: CCCCCCCCCCCCCC(=O)Nc1ccc2nc(NC(=O)c3ccccc3)sc2c1
- melting point: 160 to 167 °C

— patent US20090170914A1, “Cermide Kinase Modulation” (priority 2006, published 2009)
